Test results as given in patent US20070155698A1, “Oxazaborolidines as bacteria effectors” (priority 2003, published 2007).
In brackets after ≈: the same amount, converted by molar mass. Like-named read-outs stand apart in the source and are kept apart here.

How the values were obtained:
[1] = tested on: S. mutans ATCC 27351; test: Minimal inhibitory concentration (MIC), turbidity of overnight growth; assay type: cell-based; settings: for MIC: Streptococcus mutans, read-out: MIC Mean
Description: Sterile microculture dishes containing multiple wells were used to determine the minimal inhibitory concentration MIC) of eight derivatives of oxazborolidines. Each well contained 120 μl of brain heart infusion medium, 15 μl of an overnight suspension of S. mutans ATCC 27351 adjusted to 1 OD540 nm and 15 μl of the tested compound. Each compound was tested at five different concentrations between 0-50 mM. Each experiment was repeated twice. These cultures were incubated at 37° C. in atmosphere enriched in 5% CO2 for 24 hours. Bacteria growth was determined as turbidity of the over night growth and was determined by computerized ELISA reader (Thermomax microplate reader, Molecular Devices, USA) at 650 nm. Control cultures of bacteria with no oxazaborolidines added and media broth with the oxzaborilidines added but with no bacteria were conducted.

[2] = tested on: bacterial adhesion to hydroxyapatite (HA) beads; test: Adhesion of radioactively labeled bacteria to hydroxyapatite beads; assay type: cell-based; settings: 60 mM
Description: 40 mg samples of hydroxyapatite (HA) beads (Ceramic hydroxyapatite type I, 80 um, Bio-Rad Laboratories, Hercules, Calif., USA)) (surface area, 0.63 cm^2/mg) were equilibrated with 3 washes of buffered KCl to which 250 μl of labeled radioactive bacteria (prepared as described above), 400 μl of the tested boronic compound and 50 μl of 700 mM sucrose (in KCl buffer solution) were added. The mixture was incubated for 60 min at 37 C with gentle rotation. At the end of the incubation period, the beads were washed 3 times with buffered KCl for removal of unbound components, especially the non-adsorbed labeled bacteria, and then rinsed with 2 ml ethanol into vials containing 10 ml scintillation fluid (Ecoscint A, National Diagnostics, Manville, N.J.). The amount of radioactively labeled bacteria adsorbed onto the HA beads was measured by scintillation counting (BETAmatic scintillation counter (Koutron®, Basel, Switzerland). Results are expressed as percent of bacterial adhesion in comparison to a control group containing no agent.

[3] = Effect of pH on the oxazaborolidine derivatives (11B NMR); assay type: physicochemical; settings: pH=10.8
Text: At pH=10.8, the free n-butylboronic acid has a chemical shift of 19.974 ppm, while BNO3, the B-butyl containing derivative gives two peaks, one at 24.868 ppm (90%) which is the intermediate and a peak at 6.8 ppm (10%) that belongs to the mentioned above complex. At further basic conditions, a peak at 5.2 ppm exist which indicate a complete conversion to an ate-complex moiety.
On the other hand, the B-phenyl containing derivatives are converted to the ate-complex once they are fully dissolved in H2O, the ate-complex appears at 5.461 ppm in the ^11B NMR.

[4] = tested on: AI-2 reporter strain Vibrio harveyi BB170; test: Induction of bioluminescence in the AI-2 reporter strain (quorum sensing); assay type: cell-based
Description: Bright overnight culture was diluted 1:5000 and the bioluminescence was traced along growth of the diluted bacterial culture. BNO-1 in tested concentrations was added at start of the bacterial growth. For calculation of fold induction was used the bioluminescence levels at 3 hr after start of the growth.
(§1) Luminescence was monitored by Lumac/3M Biocounter M2010, Netherlands. Culture density was measured as CFU on selective solid LM (L-marine) medium per ml of culture. Relative luminescence (“bioluminescence” in figures) was calculated as quotient of luminescence and culture density and expressed in relative light units (RLU, count/10^6 CFU).
(§2) Fold induction was calculated as relation between induced by BNO-1 and not induced relative luminescence. A measure of inhibition was defined as relation of induced by AI-2 relative luminescence in the presence and in the absence of BNO-2.

[5] = tested on: AI-2 reporter strain Vibrio harveyi BB170; test: Inhibition of AI-2-induced bioluminescence (quorum sensing); assay type: cell-based; settings: added together with exogenous AI-2
Description: Bright overnight culture was diluted 1:5000 and the bioluminescence was traced along growth of the diluted bacterial culture at the presence of AI-2 which was added at start of the bacterial growth in the induced concentration. BNO-2 in tested concentrations was added at start of the bacterial growth. The residual bioluminescence is expressed as part of maximal, AI-2-inducted and non-inhibited bioluminescence. For the calculation was used bioluminescence level at 2.5 hr after start of the growth.
as §1, §2

[6] = ATCC27351, S. mutans, 24 hours, 37° C.

MIC [1, 6] [µM]	Compound	MIC Range ([1]; S. mutans, 24 hours, 37° C.)	antibacterial efficacy against S. mutans (MIC based, in words) [1]	other results
2830 (≈ 614 µg/mL)	CCCCB1NC(C)C(c2ccccc2)O1 (stereo not drawn) [BNO6, 2-butyl-4-methyl-5-phenyl-1,3,2-oxazaborolidine]	1.90 to 3.75 mM	–	–
–	[(2-)-N,O,O′[2,2′-Iminobis[ethanolato]]]-2-n-butylboron [BNO7]	4.5 to 9.0 mM	weakest activity	MIC Mean ([1]; S. mutans, 24 hours, 37° C.): 6750 µM
–	[(2-)-N,O,O′[2,2′-Iminobis[ethanolato]]]-2-phenylboron [BNO8]	4.5-9. mM	weakest activity	MIC Mean ([1]; S. mutans, 24 hours, 37° C.): 6750 µM
1330 (≈ 315 µg/mL)	CC1NB(c2ccccc2)OC1c1ccccc1 (stereo not drawn) [BNO4, 4-methyl-2,5-diphenyl-1,3,2-oxazaborolidine]	0.90 to 1.75 mM	–	–
530 (≈ 123 µg/mL)	CCCCB1OC(c2ccccc2)C(C)N1C (stereo not drawn) [BNO5, 2-butyl-3,4-dimethyl-5-phenyl-1,3,2-oxazaborolidine]	0.26 to 0.80 mM	most active	–
–	CC1C(c2ccccc2)OB(c2ccccc2)N1C (stereo not drawn) [BNO1, 3,4-dimethyl-2,5-diphenyl-1,3,2-oxazaborolidine]	0.77 to 2.33 mM	most active	MIC ([1]; ATCC27351, 24 h): 1550 µM (≈ 389 µg/mL); induction of bioluminescence of Vibrio harveyi BB170 ([4]; dose dependent, sensor 1− sensor 2+): induced; induction of bioluminescence in mutants with sensor 2− ([4]; sensor 2− mutants): do not react

Compound	MIC [1, 6] [µM]	MIC Range ([1]; S. mutans, 24 hours, 37° C.)	antibacterial efficacy against S. mutans (MIC based, in words) [1]	other results
CCCCB1NC(C)(C)CO1 [BNO3, 2-butyl-4,4-dimethyl-1,3,2-oxazaborolidine]	3380 (≈ 524 µg/mL)	2.25 to 4.5 mM	–	reduction of bacterial capability to adhere to hydroxyapatite surface [2]: 63%; share of ate-complex (11B NMR peak at 6.8 ppm) [3]: 10%; share of intermediate (11B NMR peak at 24.868 ppm) [3]: 90%
CC1(C)COB(c2ccccc2)N1 [BNO2, 4,4-dimethyl-2-phenyl-1,3,2-oxazaborolidine]	6000 (≈ 1050 µg/mL)	2 to 10 mM	–	promotion of bacterial adhesion [2]: 37%; inhibition of the ability of exogenous AI-2 to induce bioluminescence [5]: strongly inhibited
